This passage reports IC50 results from patent publication US10435388B2, “Selective inhibitors of clinically important mutants of the EGFR tyrosine kinase” (CS PHARMATECH LIMITED, priority 2016, dated 2019).

Structures can show the parent of a compound that is named as a salt.

One assay concerns PC9 cells (SM). The assay can be described thus: PC-9 growth inhibition assay (cell proliferation), Method B. The class given is cell-based, human. The conditions noted are these: cellular proliferation, several runs. On the procedure:
(§1) Cell Proliferation Assays—Method B
(§2) Test compounds were dissolved in DMSO at 30 mM.
(§3) The final concentration was 1,000 cells/well. Add medium only as low control. […] 5% CO2 incubator for 72 hours.
(§4) After 72 hours incubation, remove the plates from incubator and equilibrate at room temperature for 15 minutes. Incubate the CellTiter Glo reagents (Promega, G9243) at 37° C. before the experiment. The buffer was equilibrated to room temperature and used to dissolve the substrate. To determine the cell viability, add 40 μL of CellTiter-Glo reagent into each well to be detected (at 1:1 to culture medium). Then the place the plates at room temperature for 30 min followed by read on EnSpire (PerkinElmer).
(§5) For estimation of IC50, the luminescence readout are transformed to % Inhibition by applying the following equation: The IC50 was then
(§6) [formula] calculated by fitting in XLFit to a four parameters logistic curve.
PC-9 Growth Inhibition Assay (Cell Proliferation).
The inhibition assay of PC-9 cells was conducted in the same manner as described above for H1975 cells.

The subject of another assay is H1975 cells (DM). The assay can be described thus: H1975 inhibition assay (cell proliferation), Method B. Format: cell-based. The conditions noted are these: Homo sapiens, NCI-H1975, 72 h, cellular proliferation, several runs. The procedure:
as §1
H1975 Inhibition Assay (Cell Proliferation).
as §2, §3, §4, §5, §6

The test system of the next assay is A431 cells (WT). The assay can be described thus: A431 inhibition assay (cell proliferation), Method B. The class given is cell-based, human. The conditions noted are these: cellular proliferation, several runs. The procedure:
as §1
A431 Inhibition Assay, (Cell Proliferation).
The rest procedure was conducted in the same manner as described above for H1975 cells.

`C=CC(=O)Nc1cc(Nc2nccc(-c3c[nH]c4c(N(C)C)nccc34)n2)c(OC)cc1N(C)CCN(C)C` [Example 50, N-(5-(4-(7-(Dimethylamino)-1H-pyrrolo[2,3-c]pyridin-3-yl)pyrimidin-2-ylamino)-2-(N-(2-(dimethylamino)ethyl)-N-methylamino)-4-methoxyphenyl) acrylamide]: the IC50 (commonly the concentration that inhibits the measured activity by half) was determined as 14.4 nM in the assay with PC9 cells (SM) (Homo sapiens, PC-9, 72 h); 7.62 nM in the assay on H1975 cells (DM); 118 nM in the assay with A431 cells (WT) (Homo sapiens, A-431, 72 h).

In the case of `C=CC(=O)Nc1cc(Nc2ncc(Cl)c(-c3cncc(C(N)=O)c3)n2)c(OC)cc1N(C)CCN(C)C` [Example 24, 5-(2-((5-Acrylamido-4-((2-(dimethylamino)ethyl)(methyl)amino)-2-methoxyphenyl)amino)-5-chloropyrimidin-4-yl)nicotinamide hydrochloride], the IC50 in the assay with PC9 cells (SM) (Homo sapiens, PC-9, 72 h) came out at 67 nM; in the assay with H1975 cells (DM) it was 103 nM; in the assay on A431 cells (WT) (Homo sapiens, A-431, 72 h), 6990 nM.

With `C=CC(=O)Nc1cc(Nc2nccc(-n3nc(NCC4CC4)c4ccccc43)n2)c(OC)cc1N(C)CCN(C)C` [Example 66, N-(5-(4-(3-(Cyclopropylmethylamino)-1H-indazol-1-yl)pyrimidin-2-ylamino)-2-((2-(dimethylamino)ethyl)(methyl)amino)-4-methoxyphenyl) acrylamide], the IC50 with PC9 cells (SM) (Homo sapiens, PC-9, 72 h) came out at 1.96 nM; in the assay with H1975 cells (DM), 4.99 nM; in the assay on A431 cells (WT) (Homo sapiens, A-431, 72 h) it was 6.04 nM.

Regarding `C=CC(=O)Nc1cc(Nc2nccc(-c3cc(NC)cc4c3ccn4C)n2)c(OC)cc1N(C)CCN(C)C` [Example 40, N-(5-(4-(1-Methyl-6-(methylamino)-1H-indol-4-yl)pyrimidin-2-ylamino)-2-(N-(2-(dimethylamino)ethyl)-N-methylamino)-4-methoxyphenyl) acrylamide], the IC50 in the assay with PC9 cells (SM) (Homo sapiens, PC-9, 72 h) came to 63 nM; with H1975 cells (DM), 43.5 nM; with A431 cells (WT) (Homo sapiens, A-431, 72 h), 1880 nM.

For the molecule `C=CC(=O)Nc1cc(Nc2nccc(-n3nc(N4CCCC4)c4ccccc43)n2)c(OC)cc1N(C)CCN(C)C` [Example 59, N-(5-(4-(3-(Pyrrolidin-1-yl)-1H-indazol-1-yl)pyrimidin-2-ylamino)-2-(N-(2-(dimethylamino)ethyl)-N-methylamino)-4-methoxyphenyl) acrylamide], the IC50 in the assay with PC9 cells (SM) (Homo sapiens, PC-9, 72 h) worked out at 19.7 nM; in the assay on H1975 cells (DM) it was 8.45 nM; with A431 cells (WT) (Homo sapiens, A-431, 72 h) it was 716 nM.

`C=CC(=O)Nc1cc(Nc2nccc(-n3nc(N(C)CC)c4ccccc43)n2)c(OC)cc1N(C)CCN(C)C` [Example 60, N-(5-(4-(3-(N-Ethyl-N-methylamino)-1H-indazol-1-yl)pyrimidin-2-ylamino)-2-(N-(2-(dimethylamino)ethyl)-N-methylamino)-4-methoxyphenyl) acrylamide]: the IC50 was determined as 11.2 nM with PC9 cells (SM) (Homo sapiens, PC-9, 72 h); 8.1 nM in the assay on H1975 cells (DM); 545 nM in the assay on A431 cells (WT) (Homo sapiens, A-431, 72 h).

For the molecule `C=CC(=O)Nc1cc(Nc2nccc(-c3c[nH]c4c(-c5cc[nH]n5)cccc34)n2)c(OC)cc1N(C)CCN(C)C` [Example 46, N-(5-(4-(7-(1H-Pyrazol-3-yl)-1H-indol-3-yl)pyrimidin-2-ylamino)-2-(N-(2-(dimethylamino)ethyl)-N-methylamino)-4-methoxyphenyl) acrylamide], the IC50 came to 21.2 nM with PC9 cells (SM) (Homo sapiens, PC-9, 72 h); 116 nM in the assay with H1975 cells (DM); 253 nM in the assay on A431 cells (WT) (Homo sapiens, A-431, 72 h).

Consider `C=CC(=O)Nc1cc(Nc2ncc(Cl)c(-c3ccc(NC)nc3)n2)c(OC)cc1N(C)CCN(C)C` [Example 25, N-(5-((5-Chloro-4-(6-(methylamino)pyridin-3-yl)pyrimidin-2-yl)amino)-2-((2-(dimethylamino)ethyl)(methyl)amino)-4-methoxyphenyl) acrylamide], for which the IC50 was 63.1 nM in the assay on PC9 cells (SM) (Homo sapiens, PC-9, 72 h); 19.8 nM in the assay with H1975 cells (DM); 2100 nM in the assay on A431 cells (WT) (Homo sapiens, A-431, 72 h).

With `C=CC(=O)Nc1cc(Nc2nccc(-c3cnc(NC)c(C(N)=O)c3)n2)c(OC)cc1N(C)CCN(C)C` [Example 28, 5-(2-((5-Acrylamido-4-((2-(dimethylamino)ethyl)(methyl)amino)-2-methoxyphenyl)amino)pyrimidin-4-yl)-2-(methylamino)nicotinamide], the IC50 in the assay with PC9 cells (SM) (Homo sapiens, PC-9, 72 h) stood at 22 nM; in the assay on PC9 cells (SM) (72 h), 26 nM; in the assay on A431 cells (WT) (Homo sapiens, A-431, 72 h), 2230 nM; with A431 cells (WT) (72 h), 1710 nM.

Consider `C=CC(=O)Nc1cc(Nc2nccc(-c3cc(C(N)=O)c4[nH]cc(C)c4c3)n2)c(OC)cc1N(C)CCN(C)C` [Example 68, 5-(2-(5-Acrylamido-4-((2-(dimethylamino)ethyl)(methyl)amino)-2-methoxyphenylamino)pyrimidin-4-yl)-3-methyl-1H-indole-7-carboxamide], for which the IC50 amounted to 2.37 nM with PC9 cells (SM) (Homo sapiens, PC-9, 72 h); 0.86 nM in the assay on H1975 cells (DM); 264 nM with A431 cells (WT) (Homo sapiens, A-431, 72 h).

For the molecule `C=CC(=O)Nc1cc(Nc2nccc(-n3nc(NC4CC4)c4ccccc43)n2)c(OC)cc1N(C)CCN(C)C` [Example 69, N-(5-(4-(3-(cyclopropylamino)-1H-indazol-1-yl)pyrimidin-2-ylamino)-2-((2-(dimethylamino)ethyl)(methyl)amino)-4-methoxyphenyl) acrylamide], the IC50 is 1.92 nM in the assay with PC9 cells (SM) (Homo sapiens, PC-9, 72 h); 3.55 nM in the assay on H1975 cells (DM); 71.2 nM with A431 cells (WT) (Homo sapiens, A-431, 72 h).

Regarding `C=CC(=O)Nc1cc(Nc2ncc(Cl)c(-c3c[nH]c(=O)c(C)c3)n2)c(OC)cc1N(C)CCN(C)C` [Example 38, N-(5-((5-Chloro-4-(3-methyl-2-oxo-1,6-dihydropyridin-5-yl)pyrimidin-2-yl)amino)-2-((2-(dimethylamino)ethyl)(methyl)amino)-4-methoxyphenyl) acrylamide], the IC50 in the assay on PC9 cells (SM) (Homo sapiens, PC-9, 72 h) came out at 82.7 nM; in the assay on H1975 cells (DM) it was 82 nM; with A431 cells (WT) (Homo sapiens, A-431, 72 h), 1320 nM.

As for `C=CC(=O)Nc1cc(Nc2nccc(-n3cc(-c4ccn[nH]4)c4ncccc43)n2)c(OC)cc1N(C)CCN(C)C` [Example 76, N-(5-((4-(3-(1H-Pyrazol-5-yl)-1H-pyrrolo[3,2-b]pyridin-1-yl)pyrimidin-2-yl)amino)-2-((2-(dimethylamino)ethyl)(methyl)amino)-4-methoxyphenyl) acrylamide], the concentration for half-maximal inhibition (IC50) with PC9 cells (SM) (Homo sapiens, PC-9, 72 h) came out at 3.33 nM; with H1975 cells (DM), 2.27 nM; with A431 cells (WT) (Homo sapiens, A-431, 72 h), 152 nM.

On to `C=CC(=O)Nc1cc(Nc2ncc(Cl)c(-c3ccc(N(C)C)nc3)n2)c(OC)cc1N(C)CCN(C)C` [Example 26, N-(5-((5-Chloro-4-(6-(dimethylamino)pyridin-3-yl)pyrimidin-2-yl)amino)-2-((2-(dimethylamino)ethyl)(methyl)amino)-4-methoxyphenyl) acrylamide], for which the IC50 was 37.3 nM in the assay with PC9 cells (SM) (Homo sapiens, PC-9, 72 h); 25 nM in the assay with H1975 cells (DM); 1030 nM in the assay with A431 cells (WT) (Homo sapiens, A-431, 72 h).

For `C=CC(=O)Nc1cc(Nc2nccc(-c3c[nH]c4c(C(=O)NC)cccc34)n2)c(OC)cc1N(C)CCN(C)C` [Example 39, N-Methyl 3-(2-((5-acrylamido-4-((2-(dimethylamino)ethyl)(methyl)amino)-2-methoxyphenyl)amino)pyrimidin-4-yl)-1H-indole-7-carboxamide], the IC50 in the assay on PC9 cells (SM) (Homo sapiens, PC-9, 72 h) was 0.74 nM; with H1975 cells (DM) it was 0.52 nM; in the assay on A431 cells (WT) (Homo sapiens, A-431, 72 h), 42.3 nM.

As to `C=CC(=O)Nc1cc(Nc2nccc(-n3cc(-c4c[nH]nn4)c4ccccc43)n2)c(OC)cc1N(C)CCN(C)C` [Example 61, N-(5-(4-(3-(1H-1,2,3-Triazol-4-yl)-1H-indol-1-yl)pyrimidin-2-ylamino)-2-(N-(2-(dimethylamino)ethyl)-N-methylamino)-4-methoxyphenyl) acrylamide], the IC50 in the assay with PC9 cells (SM) (Homo sapiens, PC-9, 72 h) was found to be 29.5 nM; with H1975 cells (DM) it was 94 nM; in the assay with A431 cells (WT) (Homo sapiens, A-431, 72 h), 1070 nM.

For the molecule `C=CC(=O)Nc1cc(Nc2nccc(-c3c[nH]c(=O)c4c3ccn4C)n2)c(OC)cc1N(C)CCN(C)C` [Example 33, N-(2-((2-(Dimethylamino)ethyl)(methyl)amino)-4-methoxy-5-((4-(1N-methyl-7-oxo-6,7-dihydro-1H-pyrrolo[2,3-c]pyridin-4-yl)pyrimidin-2-yl)amino)phenyl) acrylamide], the IC50 in the assay with PC9 cells (SM) (Homo sapiens, PC-9, 72 h) stood at 9.9 nM; in the assay on H1975 cells (DM) it was 6.33 nM; in the assay on A431 cells (WT) (Homo sapiens, A-431, 72 h) it was 88.5 nM.

On to `C=CC(=O)Nc1cc(Nc2nccc(-n3nc(NS(C)(=O)=O)c4ccccc43)n2)c(OC)cc1N(C)CCN(C)C` [Example 44, N-(5-(4-(3-(N-methanesulfonylamido)-1H-indazol-1-yl)pyrimidin-2-ylamino)-2-(N-(2-(dimethylamino)ethyl)-N-methylamino)-4-methoxyphenyl) acrylamide], for which the IC50 in the assay on PC9 cells (SM) (Homo sapiens, PC-9, 72 h) was found to be 475 nM; with H1975 cells (DM) it was 174 nM; in the assay on A431 cells (WT) (Homo sapiens, A-431, 72 h) it was 9070 nM.

`C=CC(=O)Nc1cc(Nc2nccc(-n3nc(N(C)C)c4ccccc43)n2)c(OCC(F)F)nc1N(C)CCN(C)C` [Example 71]: the IC50 was 2.45 nM in the assay with PC9 cells (SM) (Homo sapiens, PC-9, 72 h); 3.29 nM in the assay on H1975 cells (DM); 480 nM in the assay on A431 cells (WT) (Homo sapiens, A-431, 72 h).

With `C=CC(=O)Nc1cc(Nc2nccc(-n3nc(C(F)F)c4ccccc43)n2)c(OC)cc1N(C)CCN(C)C` [Example 35, N-(5-((4-(3-(Difluoromethyl)-1H-indazol-1-yl)pyrimidin-2-yl)amino)-2-((2-(dimethylamino)ethyl)(methyl)amino)-4-methoxyphenyl) acrylamide hydrochloride], the IC50 in the assay on PC9 cells (SM) (Homo sapiens, PC-9, 72 h) turned out to be 33.3 nM; in the assay on H1975 cells (DM), 29.4 nM; with A431 cells (WT) (Homo sapiens, A-431, 72 h), 2020 nM.
